Reference: ChEMBL document CHEMBL1201862, “PubChem BioAssay data set” (2004)
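Where inhibition never reached the appropriate level, the endpoint shown equals the highest concentration tested. Otherwise, values were interpolated linearly from a five-concentration, 48-hour dose response in 96-well plates. At the GI50, growth is halved.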 Activity calls are given as the source filed them. Cut-off read from the data, not from the text of the source: active = GI50 up to about 1.1 µM and inactive = higher.

Columns and labels:
Test in all cases: DTP human tumour cell line panel, 48 h
[1] = system: SNB-19
[2] = system: UO-31
[3] = system: PC-3
[4] = system: NCI-H226
[5] = system: HOP-92
[6] = system: NCI/ADR-RES
[7] = system: MOLT-4
[8] = system: OVCAR-3
[9] = system: SR
[10] = system: A498
[11] = system: Hs-578T
[12] = system: OVCAR-4
[13] = system: NCI-H522
[14] = system: OVCAR-8
[15] = system: EKVX
[16] = system: SNB-75
[17] = system: HOP-62
[18] = system: TK-10
[19] = system: SF-295

Measured: GI50

N#CCCCC[N+]12CN3CN(CN(C3)C1)C2
inactive: [1] > 100 µM | [2] > 100 µM | [3] > 100 µM | [4] > 100 µM | [5] > 100 µM | [6] > 100 µM | [7] > 100 µM | [8] > 100 µM | [9] 30.8 µM | [10] > 100 µM | [11] > 100 µM | [12] > 100 µM | [13] > 100 µM | [14] > 100 µM | [15] > 100 µM | [16] > 100 µM | [17] > 100 µM | [18] > 100 µM | [19] > 100 µM

Cc1ccc2nc3ccccc3c(C3C4C(=O)N(c5ccc(F)cc5)C(=O)C4ON3C(C(N)=O)c3ccccc3)c2c1 (configuration not stated)
inactive: [1] 57.8 µM | [2] 36.1 µM | [3] 55.2 µM | [4] 46.3 µM | [5] 37.1 µM | [6] 29.2 µM | [7] 41.6 µM | [8] 26.7 µM | [9] 40.9 µM | [10] 41.1 µM | [11] 31.3 µM | [12] 41.1 µM | [13] 17.5 µM | [14] 46 µM | [15] 30.5 µM | [16] 76.9 µM | [17] 71.8 µM | [18] 55.6 µM | [19] 28.8 µM

Nc1c([N+](=O)[O-])cc2c3c(cccc13)CC2
inactive: [1] 86.3 µM | [2] 42.5 µM | [3] > 100 µM | [4] > 100 µM | [5] > 100 µM | [6] 40.8 µM | [7] 23.6 µM | [8] > 100 µM | [9] 25.4 µM | [10] 33.7 µM | [11] > 100 µM | [12] 47.8 µM | [13] 93.8 µM | [14] 71.3 µM | [15] 26.7 µM | [16] > 100 µM | [17] 74.6 µM | [18] 42.8 µM | [19] 91.6 µM

NC(Cc1ccnnc1)C(=O)O (configuration not stated)
inactive: [1] > 100 µM | [2] > 100 µM | [3] > 100 µM | [4] > 100 µM | [5] > 100 µM | [6] > 100 µM | [7] > 100 µM | [8] > 100 µM | [9] > 100 µM | [10] > 100 µM | [11] > 100 µM | [12] > 100 µM | [13] > 100 µM | [14] > 100 µM | [15] > 100 µM | [16] > 100 µM | [17] > 100 µM | [18] > 100 µM | [19] > 100 µM

COc1cc(C)cc(C(=O)/C=C/c2ccccc2)c1O
inactive: [1] 16 µM | [2] 17.8 µM | [3] 19.3 µM | [4] 24.2 µM | [5] 14.9 µM | [6] 21.4 µM | [7] 30.2 µM | [8] 16.5 µM | [9] 30.9 µM | [10] 18.3 µM | [11] 32.8 µM | [12] 20.2 µM | [13] 17.9 µM | [14] 19.2 µM | [15] 19.4 µM | [16] 24.5 µM | [17] 16.7 µM | [18] 18.6 µM | [19] 20.9 µM

CC1=NC(=O)C(C)(c2ccccc2)N1CCc1ccccc1 (configuration not stated)
inactive: [1] > 100 µM | [2] > 100 µM | [3] 44.7 µM | [4] 42.7 µM | [5] 16.9 µM | [6] 67.9 µM | [7] 15.9 µM | [8] 11.1 µM | [9] 32 µM | [10] 21.7 µM | [11] > 100 µM | [12] 25.6 µM | [13] > 100 µM | [14] > 100 µM | [15] > 100 µM | [16] 16.5 µM | [17] > 100 µM | [18] > 100 µM | [19] 38.5 µM

Cc1ccc([N+](=O)[O-])c2c(NCCC[N+](C)(C)[O-])ccnc12
inactive: [1] 89.5 µM | [2] 78.9 µM | [3] 50.8 µM | [4] 98.9 µM | [5] 50.9 µM | [6] > 100 µM | [7] 34.8 µM | [8] 33.9 µM | [9] 48.5 µM | [10] 32.2 µM | [11] 48.8 µM | [12] 20.3 µM | [13] 15 µM | [14] 58.9 µM | [15] > 100 µM | [16] 55.7 µM | [17] 29.3 µM | [18] > 100 µM | [19] 28.8 µM

CCCCCCCCCCCC[C@@H](O)[C@H]1CC[C@H]([C@H](O)CC[C@H](O)[C@@H]2CC[C@@H](CCCCCCCC3=C[C@H](C)OC3=O)O2)O1
inactive: [1] > 50 µM | [2] > 50 µM | [3] > 50 µM | [4] > 50 µM | [5] > 50 µM | [6] > 50 µM | [7] > 15.2 µM | [8] > 50 µM | [9] 1.27 µM | [10] > 50 µM | [11] 3.94 µM | [12] > 50 µM | [13] 46.8 µM | [14] > 50 µM | [15] > 50 µM | [16] > 50 µM | [17] > 50 µM | [18] > 50 µM | [19] > 12.6 µM
